In patent US9181305B2, “Exendin-4 peptide analogues” (SANOFI, priority 2012, dated 2015):
*1 amine or outer side, *2 acyl side, *3 side chain or, on linkers, in order; H or OH if unused. Where a SMILES comes first, the peptide text is derived from it. Side-chain parts run from the residue outwards. [ ]: non-standard residue; d: D form. The star is where a group is joined. γGlu = O=C(O)[C@H](CCC(=O)[*:2])N[*:1]; Palmitoyl = CCCCCCCCCCCCCCCC(=O)*; Cha = N[C@@H](CC1CCCCC1)C(=O)O; Orn = NCCC[C@H](N)C(=O)O; Aib = CC(C)(N)C(=O)O; βAla = NCCC(=O)O

What follows are compounds tested against T1, human GLP-1 receptor (hGLP-1 R) (Homo sapiens, UniProt P43220) (assay: cAMP response (HTRF) of HEK-293 cells stably expressing human GLP-1 receptor). Details: HEK-293 cells expressing human GLP-1 receptor, cAMP formation.
T1 construct: expressed in transfected cells; host or cells: HEK-293
T1 sequence (P43220 24-463): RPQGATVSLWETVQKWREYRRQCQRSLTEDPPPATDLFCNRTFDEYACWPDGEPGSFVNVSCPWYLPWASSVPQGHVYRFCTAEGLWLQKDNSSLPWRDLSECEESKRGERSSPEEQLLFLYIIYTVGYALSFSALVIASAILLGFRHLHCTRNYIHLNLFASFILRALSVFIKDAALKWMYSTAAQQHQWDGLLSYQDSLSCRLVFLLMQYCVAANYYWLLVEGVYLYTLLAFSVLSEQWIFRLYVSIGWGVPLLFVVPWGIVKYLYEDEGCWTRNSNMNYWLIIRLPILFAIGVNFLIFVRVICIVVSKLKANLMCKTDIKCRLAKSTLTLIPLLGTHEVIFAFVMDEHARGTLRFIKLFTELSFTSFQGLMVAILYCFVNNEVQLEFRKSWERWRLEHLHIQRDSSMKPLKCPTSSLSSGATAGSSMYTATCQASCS
Format: cell-based
Description: cAMP content of cells was determined using a kit from Cisbio Corp. (cat. no. 62AM4PEC) based on HTRF (Homogenous Time Resolved Fluorescence). For preparation, cells were split into T175 culture flasks and grown overnight to near confluency in medium (DMEM/10% FBS). Medium was then removed and cells washed with PBS lacking calcium and magnesium, followed by proteinase treatment with accutase (Sigma-Aldrich cat. no. A6964). Detached cells were washed and resuspended in assay buffer (1×HBSS; 20 mM HEPES, 0.1% BSA, 2 mM IBMX) and cellular density determined. […] For measurement, 25 μl of test compound in assay buffer was added to the wells, followed by incubation for 30 minutes at room temperature.

Structure (SMILES)	EC50 [pM]
CCCCCCCCCCCCCCCC(=O)N[C@@H](CCC(=O)NCCCC[C@H](NC(=O)[C@H](CO)NC(=O)[C@@H]1CCCN1C(=O)[C@@H]1CCCN1C(=O)[C@@H]1CCCN1C(=O)[C@H](C)NC(=O)CNC(=O)[C@H](CO)NC(=O)[C@H](CO)NC(=O)[C@@H]1CCCN1C(=O)CNC(=O)CNC(=O)[C@H](CC(N)=O)NC(=O)[C@H](CCCCN)NC(=O)[C@H](CC(C)C)NC(=O)[C@H](Cc1c[nH]c2ccccc12)NC(=O)[C@H](CCC(=O)O)NC(=O)[C@@H](NC(=O)[C@H](Cc1ccccc1)NC(=O)[C@H](CC(=O)O)NC(=O)[C@H](CCC(N)=O)NC(=O)[C@H](C)NC(=O)[C@H](CCCNC(=N)N)NC(=O)[C@H](CCCNC(=N)N)NC(=O)[C@H](CCCCN)NC(=O)[C@H](CC(=O)O)NC(=O)[C@H](CCSC)NC(=O)[C@H](CCC(N)=O)NC(=O)[C@H](CCCCN)NC(=O)[C@H](CO)NC(=O)[C@H](CC(C)C)NC(=O)[C@H](CC(=O)O)NC(=O)[C@H](CO)NC(=O)[C@@H](NC(=O)[C@H](Cc1ccccc1)NC(=O)[C@@H](NC(=O)CNC(=O)[C@H](CCC(N)=O)NC(=O)[C@@H](CO)NC(=O)[C@@H](N)Cc1c[nH]cn1)[C@@H](C)O)[C@@H](C)O)[C@@H](C)CC)C(N)=O)C(=O)O [(69)] (H-H[dS]QGTFTSDLSKQMDKRRAQDFIEWLKNGGPSSGAPPPSK([γGlu-Palmitoyl])-NH2)	7.6
CCCCCCCCCCCCCCCC(=O)N[C@@H](CCC(=O)NCCCC[C@H](NC(=O)[C@H](CO)NC(=O)[C@@H]1CCCN1C(=O)[C@@H]1CCCN1C(=O)[C@@H]1CCCN1C(=O)[C@H](C)NC(=O)CNC(=O)[C@H](CO)NC(=O)[C@H](CO)NC(=O)[C@@H]1CCCN1C(=O)CNC(=O)CNC(=O)C(C)(C)NC(=O)[C@H](CCCCN)NC(=O)[C@H](CC(C)C)NC(=O)[C@H](Cc1c[nH]c2ccccc12)NC(=O)[C@H](CCC(=O)O)NC(=O)[C@@H](NC(=O)[C@H](Cc1ccccc1)NC(=O)[C@H](CC(=O)O)NC(=O)[C@H](CCC(N)=O)NC(=O)[C@H](C)NC(=O)[C@H](CCCNC(=N)N)NC(=O)[C@H](CCCNC(=N)N)NC(=O)[C@H](CO)NC(=O)[C@H](CC(=O)O)NC(=O)[C@H](CCSC)NC(=O)[C@H](CCC(N)=O)NC(=O)[C@H](CCCCN)NC(=O)[C@H](CO)NC(=O)[C@H](CC(C)C)NC(=O)[C@H](CC(=O)O)NC(=O)[C@H](CO)NC(=O)[C@@H](NC(=O)[C@H](Cc1ccccc1)NC(=O)[C@@H](NC(=O)CNC(=O)[C@H](CCC(N)=O)NC(=O)[C@@H](CO)NC(=O)[C@@H](N)Cc1c[nH]cn1)[C@@H](C)O)[C@@H](C)O)[C@@H](C)CC)C(N)=O)C(=O)O [(72)] (H-H[dS]QGTFTSDLSKQMDSRRAQDFIEWLK[Aib]GGPSSGAPPPSK([γGlu-Palmitoyl])-NH2)	5.2
CCCCCCCCCCCCCCCC(=O)N[C@@H](CCC(=O)NCCCC[C@H](NC(=O)[C@@H]1CCCN1C(=O)[C@@H]1CCCN1C(=O)[C@@H]1CCCN1C(=O)[C@H](C)NC(=O)CNC(=O)[C@H](CO)NC(=O)[C@H](CO)NC(=O)[C@@H]1CCCN1C(=O)CNC(=O)CNC(=O)C(C)(C)NC(=O)[C@H](CCCCN)NC(=O)[C@H](CC(C)C)NC(=O)[C@H](Cc1c[nH]c2ccccc12)NC(=O)[C@H](CCC(=O)O)NC(=O)[C@@H](NC(=O)[C@H](Cc1ccccc1)NC(=O)[C@H](CC(=O)O)NC(=O)[C@H](CCC(N)=O)NC(=O)[C@H](C)NC(=O)[C@H](CCCNC(=N)N)NC(=O)[C@H](CCCNC(=N)N)NC(=O)[C@H](CO)NC(=O)[C@H](CCC(=O)O)NC(=O)[C@H](CCSC)NC(=O)[C@H](CCC(N)=O)NC(=O)[C@H](CCCCN)NC(=O)[C@H](CO)NC(=O)[C@H](CC(C)C)NC(=O)[C@H](CC(=O)O)NC(=O)[C@H](CO)NC(=O)[C@@H](NC(=O)[C@H](Cc1ccccc1)NC(=O)[C@@H](NC(=O)CNC(=O)[C@H](CCC(N)=O)NC(=O)[C@@H](CO)NC(=O)[C@@H](N)Cc1c[nH]cn1)[C@@H](C)O)[C@@H](C)O)[C@@H](C)CC)C(N)=O)C(=O)O [(80)] (H-H[dS]QGTFTSDLSKQMESRRAQDFIEWLK[Aib]GGPSSGAPPPK([γGlu-Palmitoyl])-NH2)	10.8
CCCCCCCCCCCCCCCC(=O)N[C@@H](CCC(=O)NCCC[C@H](NC(=O)[C@H](CO)NC(=O)[C@@H]1CCCN1C(=O)[C@@H]1CCCN1C(=O)[C@@H]1CCCN1C(=O)[C@H](C)NC(=O)CNC(=O)[C@H](CO)NC(=O)[C@H](CO)NC(=O)[C@@H]1CCCN1C(=O)CNC(=O)CNC(=O)[C@H](CO)NC(=O)[C@H](CCCCN)NC(=O)[C@H](CC(C)C)NC(=O)[C@H](Cc1c[nH]c2ccccc12)NC(=O)[C@H](CCC(=O)O)NC(=O)[C@@H](NC(=O)[C@H](Cc1ccccc1)NC(=O)[C@H](CC(=O)O)NC(=O)[C@H](CCC(N)=O)NC(=O)[C@H](C)NC(=O)[C@H](CCCNC(=N)N)NC(=O)[C@H](CCCNC(=N)N)NC(=O)[C@H](CO)NC(=O)[C@H](CCC(=O)O)NC(=O)[C@H](CCSC)NC(=O)[C@H](CCC(N)=O)NC(=O)[C@H](CCCCN)NC(=O)[C@H](CO)NC(=O)[C@H](CC(C)C)NC(=O)[C@H](CC(=O)O)NC(=O)[C@H](CO)NC(=O)[C@@H](NC(=O)[C@H](Cc1ccccc1)NC(=O)[C@@H](NC(=O)CNC(=O)[C@H](CCC(N)=O)NC(=O)[C@@H](CO)NC(=O)[C@@H](N)Cc1c[nH]cn1)[C@@H](C)O)[C@@H](C)O)[C@@H](C)CC)C(N)=O)C(=O)O [(88)] (H-H[dS]QGTFTSDLSKQMESRRAQDFIEWLKSGGPSSGAPPPS[Orn]([γGlu-Palmitoyl])-NH2)	5.1
CCCCCCCCCCCCCCCC(=O)N[C@@H](CCC(=O)NCCCC[C@H](NC(=O)[C@H](CO)NC(=O)[C@@H]1CCCN1C(=O)[C@@H]1CCCN1C(=O)[C@@H]1CCCN1C(=O)[C@H](C)NC(=O)CNC(=O)[C@H](CO)NC(=O)[C@H](CO)NC(=O)[C@@H]1CCCN1C(=O)CNC(=O)CNC(=O)[C@H](CO)NC(=O)[C@H](CCCCN)NC(=O)[C@H](CC(C)C)NC(=O)[C@H](Cc1c[nH]c2ccccc12)NC(=O)[C@H](CCC(=O)O)NC(=O)[C@@H](NC(=O)[C@H](Cc1ccccc1)NC(=O)[C@H](CC(C)C)NC(=O)[C@H](CCCNC(=N)N)NC(=O)[C@H](C)NC(=O)[C@H](CCCNC(=N)N)NC(=O)[C@H](CCCNC(=N)N)NC(=O)[C@H](CO)NC(=O)[C@H](CCC(=O)O)NC(=O)[C@H](CCSC)NC(=O)[C@H](CCC(N)=O)NC(=O)[C@H](CCCCN)NC(=O)[C@H](CO)NC(=O)[C@H](CC(C)C)NC(=O)[C@H](CC(=O)O)NC(=O)[C@H](CO)NC(=O)[C@@H](NC(=O)[C@H](Cc1ccccc1)NC(=O)[C@@H](NC(=O)CNC(=O)[C@H](CCC(N)=O)NC(=O)[C@@H](CO)NC(=O)[C@@H](N)Cc1c[nH]cn1)[C@@H](C)O)[C@@H](C)O)[C@@H](C)CC)C(N)=O)C(=O)O [(91)] (H-H[dS]QGTFTSDLSKQMESRRARLFIEWLKSGGPSSGAPPPSK([γGlu-Palmitoyl])-NH2)	6.7
CCCCCCCCCCCCCCCC(=O)N[C@@H](CCC(=O)NCCCC[C@H](NC(=O)[C@H](CO)NC(=O)[C@@H]1CCCN1C(=O)[C@@H]1CCCN1C(=O)[C@@H]1CCCN1C(=O)[C@H](C)NC(=O)CNC(=O)[C@H](CO)NC(=O)[C@H](CO)NC(=O)[C@@H]1CCCN1C(=O)CNC(=O)CNC(=O)[C@H](C)NC(=O)[C@H](CCCCN)NC(=O)[C@H](CC(C)C)NC(=O)[C@H](Cc1c[nH]c2ccccc12)NC(=O)[C@H](CCC(=O)O)NC(=O)[C@@H](NC(=O)[C@H](Cc1ccccc1)NC(=O)[C@H](CC(=O)O)NC(=O)[C@H](CCC(N)=O)NC(=O)[C@H](C)NC(=O)[C@H](CCCNC(=N)N)NC(=O)[C@H](CCCNC(=N)N)NC(=O)[C@H](CO)NC(=O)[C@H](CCC(=O)O)NC(=O)[C@H](CC1CCCCC1)NC(=O)[C@H](CCC(N)=O)NC(=O)[C@H](CCCCN)NC(=O)[C@H](CO)NC(=O)[C@H](CC(C)C)NC(=O)[C@H](CC(=O)O)NC(=O)[C@H](CO)NC(=O)[C@@H](NC(=O)[C@H](Cc1ccccc1)NC(=O)[C@@H](NC(=O)CNC(=O)[C@H](CCC(N)=O)NC(=O)[C@@H](CO)NC(=O)[C@@H](N)Cc1c[nH]cn1)[C@@H](C)O)[C@@H](C)O)[C@@H](C)CC)C(N)=O)C(=O)O [(95)] (H-H[dS]QGTFTSDLSKQ[Cha]ESRRAQDFIEWLKAGGPSSGAPPPSK([γGlu-Palmitoyl])-NH2)	6.7
CCCCCCCCCCCCCCCC(=O)NCCC(=O)NCCC(=O)NCCCC[C@H](NC(=O)[C@H](CO)NC(=O)[C@@H]1CCCN1C(=O)[C@@H]1CCCN1C(=O)[C@@H]1CCCN1C(=O)[C@H](C)NC(=O)CNC(=O)[C@H](CO)NC(=O)[C@H](CO)NC(=O)[C@@H]1CCCN1C(=O)CNC(=O)CNC(=O)[C@H](CO)NC(=O)[C@H](CCCCN)NC(=O)[C@H](CC(C)C)NC(=O)[C@H](Cc1c[nH]c2ccccc12)NC(=O)[C@H](CCC(=O)O)NC(=O)[C@@H](NC(=O)[C@H](Cc1ccccc1)NC(=O)[C@H](CC(=O)O)NC(=O)[C@H](CCC(N)=O)NC(=O)[C@H](C)NC(=O)[C@H](CCCNC(=N)N)NC(=O)[C@H](CCCNC(=N)N)NC(=O)[C@H](CO)NC(=O)[C@H](CCC(=O)O)NC(=O)[C@H](CCSC)NC(=O)[C@H](CCC(N)=O)NC(=O)[C@H](CCCCN)NC(=O)[C@H](CO)NC(=O)[C@H](CC(C)C)NC(=O)[C@H](CC(=O)O)NC(=O)[C@H](CO)NC(=O)[C@@H](NC(=O)[C@H](Cc1ccccc1)NC(=O)[C@@H](NC(=O)CNC(=O)[C@H](CCC(N)=O)NC(=O)[C@@H](CO)NC(=O)[C@@H](N)Cc1c[nH]cn1)[C@@H](C)O)[C@@H](C)O)[C@@H](C)CC)C(N)=O [(98)] (H-H[dS]QGTFTSDLSKQMESRRAQDFIEWLKSGGPSSGAPPPSK([βAla-βAla-Palmitoyl])-NH2)	5.1
